Test results from patent publication US8613909B2, “Cinnamic acid-based oligomers and uses thereof” (Virginia Commonwealth University, priority 2008, dated 2013).

Experiments:
[1] = Chemical antioxidant assay (ABTS oxidation by metmyoglobin/hydrogen peroxide); conditions: room temperature, absorbance at 750 nm in first 5 min; read-out: AOC50 (half maximal anti-oxidative concentration)
Procedure: Anti-oxidative activity of the oligomers was determined at room temperature using the chemical antioxidant assay kit (Cayman Chemical Co.) in a 96-well plate format, in accord with the manufacturer's protocol. The kit has been validated in-house with respect to assay precision and accuracy. Oxidative reaction of ABTS (2,2′-azino-di-[3-ethylbenzthiazoline sulphonate]) to its oxidative product, ABTS•+, by metmyoglobin and 84 μM hydrogen peroxide were monitored for 20 min in the presence of each oligomer at 0-100 μM. The absorbance at 750 nm due to ABTS•+ generation was measured using the microplate reader. Initial linear rate of oxidation was assessed with the absorbance produced for the first 5 min. The half maximal anti-oxidative concentration (AOC50) values were derived, assuming the sigmoidal concentration-dependence of the initial oxidation rate in the logistic function equation.

[2] = system: NFκB in Calu-3 human bronchial epithelial cells; assay: TNFα-dependent NFκB-Luc reporter repression in Calu-3 cells; format: cell-based
Procedure: Anti-inflammatory activity of each of the oligomers was determined using Calu-3 human bronchial epithelial cells (American Type Culture Collection; ATCC), from repression of the inflammatory transcription factor NFκB. The Calu-3 cells of 0.5×10^6 cells/cm^2 in 12-well plates were cultured for 24 h and then, transfected with 0.6 μg luciferase (Luc)-tagged reporter plasmid construct of NFκB (pNFκB-Luc) for another 24 h using the Effectene reagents (Qiagen) under the protocol optimized in-house. On day 3, the transfected Calu-3 cells were stimulated for 6 h with 30 ng/ml human tumor necrosis factor α (TNF α; BD Biosciences) in the presence of each oligomer at 0-100 μM in culture. Then, the Calu-3 cells were lysed, after which the Luc activities were measured using 20/20n luminometer (Turner BioSystems). The cellular NFκB-Luc activity was expressed in relative light unit/mg protein, normalized by the total protein measured by the BCA assay (Pierce Biotechnology). A fold-induction of such a normalized NFκB-Luc activity relative to the transfection control was derived for treatment group comparison; this accommodated inter-transfection efficiency differences.

EC50 [1] [µM] | SMILES | repression of NFκB-Luc activity ([2]; by 100 μM) | repression of TNFα-induced NFκB-Luc activity ([2]; 5 μM) [%]
16.8 ± 1.6 | O=C(O)/C=C/c1ccc(O)c(O)c1 [CA, caffeic acid] | no appreciable repression | 
 | CCC(=O)O[C@]1(C(=O)SCF)[C@H](C)C[C@H]2[C@@H]3C[C@H](F)C4=CC(=O)C=C[C@]4(C)[C@@]3(F)[C@@H](O)C[C@@]21C [FP, fluticasone propionate] |  | 100
